Measurements as given in patent publication US8304419B2, “Chemical compounds” (priority 2007, dated 2012).
Structures can show the parent of a compound that is named as a salt.

Tested on: HIV wild type (WTRVA)
Assay: HeLa cell assay, wild type virus (WTRVA)
Format: cell-based, HIV-1
Set-up: scale not given here
Details: Human immunodeficiency virus 1, HeLa, HeLa cell assay; read-out: IC50 against WTRVA

Cc1cc(C#N)cc(Oc2c(Cl)ccc(CNC(=O)c3[nH]cnc3Cl)c2F)c1 [Example 145, 4-chloro-N-({4-chloro-3-[(3-cyano-5-methylphenyl)oxy]-2-fluorophenyl}methyl)-1H-imidazole-5-carboxamide] and C=C(C)c1cc(C#N)cc(Oc2c(Cl)ccc(CNC(=O)c3[nH]cnc3Cl)c2F)c1 [Example 158, 4-chloro-N-[(4-chloro-3-{[3-cyano-5-(1-methylethenyl)phenyl]oxy}-2-fluorophenyl)methyl]-1H-imidazole-5-carboxamide] cannot be ordered by IC50: < 10 nM for the first, < 10 nM for the second.

N#C/C=C/c1cc(Cl)cc(Oc2c(Cl)ccc(CNC(=O)c3[nH]cnc3Cl)c2F)c1 [Example 291, 4-chloro-N-{[4-chloro-3-({3-chloro-5-[(E)-2-cyanoethenyl]phenyl}oxy)-2-fluorophenyl]methyl}-1H-imidazole-5-carboxamide] and C#Cc1cc(Cl)cc(Oc2c(Cl)ccc(CNC(=O)c3[nH]cnc3Cl)c2F)c1 [Example 293, 4-chloro-N-({4-chloro-3-[(3-chloro-5-ethynylphenyl)oxy]-2-fluorophenyl}methyl)-1H-imidazole-5-carboxamide] cannot be ordered by IC50: < 10 nM for the first, < 10 nM for the second.

C=CCc1cc(C#N)cc(Oc2c(Cl)ccc(CNC(=O)c3[nH]c(C)nc3Cl)c2F)c1 [Example 248, 4-chloro-N-[(4-chloro-3-{[3-cyano-5-(2-propen-1-yl)phenyl]oxy}-2-fluorophenyl)methyl]-2-methyl-1H-imidazole-5-carboxamide trifluoroacetate] and CCCc1cc(C#N)cc(Oc2c(Cl)ccc(CNC(=O)c3[nH]cnc3Cl)c2F)c1 [Example 151, 4-chloro-N-({4-chloro-3-[(3-cyano-5-propylphenyl)oxy]-2-fluorophenyl}methyl)-1H-imidazole-5-carboxamide] cannot be ordered by IC50: < 10 nM for the first, < 10 nM for the second.

CCc1ccc(CNC(=O)c2[nH]c(N)nc2Cl)c(F)c1Oc1cc(Cl)cc(C#N)c1 [Example 251, 2-amino-4-chloro-N-({3-[(3-chloro-5-cyanophenyl)oxy]-4-ethyl-2-fluorophenyl}methyl)-1H-imidazole-5-carboxamide] and Cc1nc(Br)c(C(=O)NCc2ccc(Br)c(Oc3cc(Cl)cc(C#N)c3)c2F)[nH]1 [Example 233, 4-bromo-N-({4-bromo-3-[(3-chloro-5-cyanophenyl)oxy]-2-fluorophenyl}methyl)-2-methyl-1H-imidazole-5-carboxamide] cannot be ordered by IC50: < 10 nM for the first, < 10 nM for the second.

N#Cc1cc(Cl)cc(Oc2c(Cl)ccc(CNC(=O)c3[nH]cnc3Br)c2F)c1 [Example 133, 4-bromo-N-({4-chloro-3-[(3-chloro-5-cyanophenyl)oxy]-2-fluorophenyl}methyl)-1H-imidazole-5-carboxamide trifluoroacetate] was tested, and the IC50 was < 10 nM.

Same assay, conditions: Human immunodeficiency virus 1, HeLa, HeLa-CD4-LTR-β-gal cells, wild type virus; read-out: WTRVA activity level

N#Cc1cc(Cl)cc(Oc2c(Cl)ccc(CNC(=O)c3cc4cc(N)ccc4[nH]3)c2F)c1 [Example 111, 5-amino-N-({4-chloro-3-[(3-chloro-5-cyanophenyl)oxy]-2-fluorophenyl}methyl)-1H-indole-2-carboxamide trifluoroacetate] and CC(=O)Nc1ccc2[nH]c(C(=O)NCc3ccc(Cl)c(Oc4cc(Cl)cc(C#N)c4)c3F)cc2c1 [Example 121, 5-(acetylamino)-N-({4-chloro-3-[(3-chloro-5-cyanophenyl)oxy]-2-fluorophenyl}methyl)-1H-indole-2-carboxamide] cannot be ordered by IC50: < 10 nM for the first, < 10 nM for the second.

N#Cc1cc(Cl)cc(Oc2c(Cl)ccc(CNC(=O)c3ncc[nH]3)c2F)c1 [Example 59, N-({4-chloro-3-[(3-chloro-5-cyanophenyl)oxy]-2-fluorophenyl}methyl)-1H-imidazole-2-carboxamide trifluoroacetate] and N#Cc1cc(Cl)cc(Oc2c(Cl)ccc(CNC(=O)c3[nH]cnc3Br)c2F)c1 [Example 133, 4-bromo-N-({4-chloro-3-[(3-chloro-5-cyanophenyl)oxy]-2-fluorophenyl}methyl)-1H-imidazole-5-carboxamide trifluoroacetate] cannot be ordered by IC50: < 10 nM for the first, < 10 nM for the second.

First: N#Cc1cc(Cl)cc(Oc2cc(CNC(=O)c3cc4cc([N+](=O)[O-])ccc4[nH]3)ccc2Cl)c1 [Example 9, N-({4-chloro-3-[(3-chloro-5-cyanophenyl)oxy]phenyl}methyl)-5-nitro-1H-indole-2-carboxamide]
Second: CS(=O)(=O)c1ccc(C(=O)NCc2ccc(Cl)c(Oc3cc(Cl)cc(C#N)c3)c2)c(Cl)c1 [Example 8, 2-chloro-N-({4-chloro-3-[(3-chloro-5-cyanophenyl)oxy]phenyl}methyl)-4-(methylsulfonyl)benzamide]
The IC50 of the first is higher: > 1000 nM for the first, 10 to 1000 nM for the second. The second is the more potent here.

CN(C)CCOc1ccc2[nH]c(C(=O)NCc3ccc(Cl)c(Oc4cc(Cl)cc(C#N)c4)c3F)cc2c1 [Example 105, N-({4-chloro-3-[(3-chloro-5-cyanophenyl)oxy]-2-fluorophenyl}methyl)-5-{[2-(dimethylamino)ethyl]oxy}-1H-indole-2-carboxamide] and CN(C)CCCOc1ccc2[nH]c(C(=O)NCc3ccc(Cl)c(Oc4cc(Cl)cc(C#N)c4)c3F)cc2c1 [Example 102, N-({4-chloro-3-[(3-chloro-5-cyanophenyl)oxy]-2-fluorophenyl}methyl)-5-{[3-(dimethylamino)propyl]oxy}-1H-indole-2-carboxamide] cannot be ordered by IC50: < 10 nM for the first, < 10 nM for the second.

N#Cc1cc(Cl)cc(Oc2c(Cl)ccc(CNC(=O)c3cc([N+](=O)[O-])c[nH]3)c2F)c1 [Example 70, N-({4-chloro-3-[(3-chloro-5-cyanophenyl)oxy]-2-fluorophenyl}methyl)-4-nitro-1H-pyrrole-2-carboxamide trifluoroacetate] and N#Cc1cc(Cl)cc(Oc2c(Cl)ccc(CNC(=O)c3[nH]cnc3[N+](=O)[O-])c2F)c1 [Example 68, N-({4-chloro-3-[(3-chloro-5-cyanophenyl)oxy]-2-fluorophenyl}methyl)-4-nitro-1H-imidazole-5-carboxamide trifluoroacetate] cannot be ordered by IC50: < 10 nM for the first, < 10 nM for the second.

First: CSc1ncc(Cl)c(C(=O)NCc2ccc(Cl)c(Oc3cc(Cl)cc(C#N)c3)c2F)n1 [Example 101, 5-chloro-N-({4-chloro-3-[(3-chloro-5-cyanophenyl)oxy]-2-fluorophenyl}methyl)-2-(methylthio)-4-pyrimidinecarboxamide]
Second: Cc1nc(Cl)c(C(=O)NCc2ccc(Cl)c(Oc3cc(Cl)cc(C#N)c3)c2F)[nH]1 [Example 137, 4-chloro-N-({4-chloro-3-[(3-chloro-5-cyanophenyl)oxy]-2-fluorophenyl}methyl)-2-methyl-1H-imidazole-5-carboxamide]
The IC50 of the first is higher: 10 to 1000 nM for the first, < 10 nM for the second. The second is the more potent here.

N#Cc1cc(Cl)cc(Oc2c(Cl)ccc(CNC(=O)c3cc4cccc(O)c4[nH]3)c2F)c1 [Example 32, N-({4-chloro-3-[(3-chloro-5-cyanophenyl)oxy]-2-fluorophenyl}methyl)-7-hydroxy-1H-indole-2-carboxamide] and Cc1cccc2cc(C(=O)NCc3ccc(Cl)c(Oc4cc(Cl)cc(C#N)c4)c3F)[nH]c12 [Example 108, N-({4-chloro-3-[(3-chloro-5-cyanophenyl)oxy]-2-fluorophenyl}methyl)-7-methyl-1H-indole-2-carboxamide] fall in the same range of IC50: 10 to 1000 nM for the first, 10 to 1000 nM for the second.

Cc1c(C(=O)NCc2ccc(Cl)c(Oc3cc(Cl)cc(C#N)c3)c2F)[nH]c2ccccc12 [Example 39, N-({4-chloro-3-[(3-chloro-5-cyanophenyl)oxy]-2-fluorophenyl}methyl)-3-methyl-1H-indole-2-carboxamide] and Cc1cc(C)c(C(=O)NCc2ccc(Cl)c(Oc3cc(Cl)cc(C#N)c3)c2F)[nH]1 [Example 62, N-({4-chloro-3-[(3-chloro-5-cyanophenyl)oxy]-2-fluorophenyl}methyl)-3,5-dimethyl-1H-pyrrole-2-carboxamide trifluoroacetate] cannot be ordered by IC50: < 10 nM for the first, < 10 nM for the second.

First: Cc1nn(-c2ccccc2)nc1C(=O)NCc1ccc(Cl)c(Oc2cc(Cl)cc(C#N)c2)c1F [Example 96, N-({4-chloro-3-[(3-chloro-5-cyanophenyl)oxy]-2-fluorophenyl}methyl)-5-methyl-2-phenyl-2H-1,2,3-triazole-4-carboxamide trifluoroacetate]
Second: Cc1nnsc1C(=O)NCc1ccc(Cl)c(Oc2cc(Cl)cc(C#N)c2)c1F [Example 91, N-({4-chloro-3-[(3-chloro-5-cyanophenyl)oxy]-2-fluorophenyl}methyl)-4-methyl-1,2,3-thiadiazole-5-carboxamide]
The IC50 of the first is higher: 10 to 1000 nM for the first, < 10 nM for the second.

CNCC(=O)Nc1ccc2[nH]c(C(=O)NCc3ccc(Cl)c(Oc4cc(Cl)cc(C#N)c4)c3F)cc2c1 [Example 119] and CC(O)CCOc1ccc2[nH]c(C(=O)NCc3ccc(Cl)c(Oc4cc(Cl)cc(C#N)c4)c3F)cc2c1 (stereo not shown) [Example 106, N-({4-chloro-3-[(3-chloro-5-cyanophenyl)oxy]-2-fluorophenyl}methyl)-5-[(3-hydroxybutyl)oxy]-1H-indole-2-carboxamide] cannot be ordered by IC50: < 10 nM for the first, < 10 nM for the second.

CCc1nc(Cl)c(C(=O)NCc2ccc(Cl)c(Oc3cc(Cl)cc(C#N)c3)c2F)[nH]1 [Example 77, 4-chloro-N-({4-chloro-3-[(3-chloro-5-cyanophenyl)oxy]-2-fluorophenyl}methyl)-2-ethyl-1H-imidazole-5-carboxamide trifluoroacetate] and N#Cc1cc(Cl)cc(Oc2c(Cl)ccc(CNC(=O)c3csnn3)c2F)c1 [Example 90, N-({4-chloro-3-[(3-chloro-5-cyanophenyl)oxy]-2-fluorophenyl}methyl)-1,2,3-thiadiazole-4-carboxamide] cannot be ordered by IC50: < 10 nM for the first, < 10 nM for the second.

N#Cc1cc(Cl)cc(Oc2c(Cl)ccc(CNC(=O)c3cc4cc(OCC(CO)CO)ccc4[nH]3)c2F)c1 [Example 22, N-({4-chloro-3-[(3-chloro-5-cyanophenyl)oxy]-2-fluorophenyl}methyl)-5-{[3-hydroxy-2-(hydroxymethyl)propyl]oxy}-1H-indole-2-carboxamide] and N#Cc1cc(Cl)cc(Oc2c(Cl)ccc(CNC(=O)c3[nH]c4cc(OCCO)ccc4c3Br)c2F)c1 [Example 141, 3-Bromo-N-({4-chloro-3-[(3-chloro-5-cyanophenyl)oxy]-2-fluorophenyl}methyl)-6-[(2-hydroxyethyl)oxy]-1H-indole-2-carboxamide] cannot be ordered by IC50: < 10 nM for the first, < 10 nM for the second.

Compound CS(=O)(=O)c1cc(F)cc2cc(C(=O)NCc3ccc(Cl)c(Oc4cc(Cl)cc(C#N)c4)c3F)[nH]c12 [Example 33, N-({4-chloro-3-[(3-chloro-5-cyanophenyl)oxy]-2-fluorophenyl}methyl)-5-fluoro-7-(methylsulfonyl)-1H-indole-2-carboxamide] has an IC50 of 10 to 1000 nM.
